Here are results for two compounds from ChEMBL document CHEMBL3870365, “Development of 4-Heteroarylamino-1'-azaspiro[oxazole-5,3'-bicyclo[2.2.2]octanes] as α7 Nicotinic Receptor Agonists” (ACS Med Chem Lett, 2017).

A short description of series [1]: Plasma concentration in C57BL/6 mouse at 0.03 mg/kg, sc after 30 mins. It counts as ADME, organism-based.
Series [2] in a line: Ratio of drug level in brain to plasma in C57BL/6 mouse at 0.03 mg/kg, sc after 30 mins. The class given is ADME, organism-based. The note with it: read-out: BPR.
Series [3] can be described thus: Fraction unbound in C57BL/6 mouse plasma at 0.03 mg/kg, sc after 30 mins. It counts as ADME, organism-based. The note with it: in vivo, 0.5 h.
The conditions of series [4]: mouse, in vivo, sc, 0.01 mg/kg, 0.5 h.
Series [5] in a line: in vivo. To be noted: C57BL/6, mouse, plasma, sc, 0.01 mg/kg.
Series [6] is described as follows: in vivo. To be noted: C57BL/6, mouse, brain/plasma, sc, 0.01 mg/kg.

`Clc1ccc2c(NC3=NC[C@@]4(CN5CCC4CC5)O3)ncnn12` displayed a concentration at 0.5 h in series [1] of 18 nM. Moreover, in series [2], the Kp at 0.5 h stood at 1.9. This compound displayed a Cp(f) in series [3] of 50 to 75%.
For `Brc1ccc2c(NC3=NC[C@@]4(CN5CCC4CC5)O3)ncnn12`, the Cp(f) in series [4] lay within 50 to 75%. The concentration at 0.5 h in “in vivo [5]” came to 7 nM. Also, the Kp at 0.5 h in the series “in vivo [6]” came to 4.9.
